Read-outs that look alike come from different tables or passages of the source.
Test system: Rhizoctonia solani
Format: in vivo
Details: cucumber (Sagami Hanjiro) seeds coated, 7 days after sowing
Protocol: Thoroughly mixed were 2.5 parts of clothianidin, 1.25 parts of tolclofos-methyl, 14 parts of polyoxyethylene styryl phenyl ether, 6 parts of calcium dodecylbenzenesulfonate and 76.25 parts of xylene to give a formulation.
The formulation was diluted with acetone, to prepare an acetone mixed solution containing clothianidin and tolclofos-methyl of given concentration.
Five (5) g of cucumber (Sagami Hanjiro) seeds were coated with 1 ml of the mixed solution using a rotation mode seed treating machine (Seed Dresser, manufactured by Hans-Ulrich Hege GmbH), to give treated seeds.
The treated seeds were allowed to stand still overnight, then, sowed on a soil stuffed in a plastic pot, and covered by a soil blended with Rhizoctonia solani cultured in a bran medium. Cultivation thereof was performed at room temperature while irrigating. Seven (7) days after sowing, the number of non-budded seeds was checked, and the damaged ratio was calculated from the formula 1. Based on the damaged ratio, the control value was calculated from the formula 2.
For comparison, an acetone solution containing clothianidin of a given concentration, and an acetone solution containing tolclofos-methyl of a given concentration were prepared, and subjected to the same test. […]

| Compound | Control value (active ingredient amount 200 g/100 kg-seed) | Control value (active ingredient amount 10 g/100 kg-seed) |
| --- | --- | --- |
| CN/C(=N\[N+](=O)[O-])NCc1cnc(Cl)s1 [Clothianidin, clothianidin] | 4 |  |
| COP(=S)(OC)Oc1c(Cl)cc(C)cc1Cl [Tolclofos-methyl, tolclofos-methyl] |  | 57 |

Reference: patent US8940777B2 (priority 2008, dated 2015)
